For data set [1], the target named is human α2C adrenergic receptor (Homo sapiens, UniProt P18825). Nature of the data set: Radioligand binding assay, [3H]rauwolscine competition.
For data set [2], the target named is human α2A adrenergic receptor (Homo sapiens, UniProt P08913). Nature of the data set: Agonist activity: inhibition of forskolin-stimulated cAMP synthesis.
Data set [3] has as its target T1, human α2B adrenergic receptor (Homo sapiens, UniProt P18089).
T1 construct: expressed in transfected cells
T1 sequence (P18089 1-450): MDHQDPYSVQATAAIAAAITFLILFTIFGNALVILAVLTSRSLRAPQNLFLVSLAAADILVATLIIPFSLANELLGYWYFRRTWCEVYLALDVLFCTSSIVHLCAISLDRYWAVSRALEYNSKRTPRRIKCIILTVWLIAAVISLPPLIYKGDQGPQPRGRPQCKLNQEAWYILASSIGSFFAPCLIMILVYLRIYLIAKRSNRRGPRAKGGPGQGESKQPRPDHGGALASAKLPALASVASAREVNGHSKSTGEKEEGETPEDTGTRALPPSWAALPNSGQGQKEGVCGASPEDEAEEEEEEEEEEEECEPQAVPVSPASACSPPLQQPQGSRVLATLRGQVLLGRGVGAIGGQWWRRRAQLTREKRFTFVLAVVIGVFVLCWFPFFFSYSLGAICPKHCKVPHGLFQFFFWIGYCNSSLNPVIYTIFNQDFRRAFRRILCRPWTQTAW
The data set can be described thus: Radioligand binding assay, [3H]rauwolscine competition.

Data set [4] concerns the target T2, human α2C adrenergic receptor (Homo sapiens, UniProt P18825).
T2 construct: The entire coding region of α2C (1383 bp), including 2 bp of 5′ UT and 400 bp of 3′ UT; expressed in transfected cells
T2 sequence (P18825 1-462): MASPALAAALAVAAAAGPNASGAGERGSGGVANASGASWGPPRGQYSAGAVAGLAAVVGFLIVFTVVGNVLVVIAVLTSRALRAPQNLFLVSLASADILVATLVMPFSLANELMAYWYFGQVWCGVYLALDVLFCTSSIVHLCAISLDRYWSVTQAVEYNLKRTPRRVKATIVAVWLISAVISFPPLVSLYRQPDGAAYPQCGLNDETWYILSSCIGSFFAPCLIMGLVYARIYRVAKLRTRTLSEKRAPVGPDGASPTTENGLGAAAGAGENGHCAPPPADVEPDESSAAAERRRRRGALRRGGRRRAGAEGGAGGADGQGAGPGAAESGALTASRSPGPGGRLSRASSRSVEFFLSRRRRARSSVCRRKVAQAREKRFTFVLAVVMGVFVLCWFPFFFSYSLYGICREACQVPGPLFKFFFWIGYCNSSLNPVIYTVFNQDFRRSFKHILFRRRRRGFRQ
Described as above.

Data set [5] has as its target T1, human α2B adrenergic receptor. The data set can be described thus: Agonist activity: inhibition of forskolin-stimulated cAMP synthesis. It is filed as cell-based.
Data set [6] deals with T2, human α2C adrenergic receptor. The data set is described as above. It is filed as cell-based.
For data set [7], the target named is T3, human α2A adrenergic receptor (Homo sapiens, UniProt P08913).
T3 sequence (P08913 1-465): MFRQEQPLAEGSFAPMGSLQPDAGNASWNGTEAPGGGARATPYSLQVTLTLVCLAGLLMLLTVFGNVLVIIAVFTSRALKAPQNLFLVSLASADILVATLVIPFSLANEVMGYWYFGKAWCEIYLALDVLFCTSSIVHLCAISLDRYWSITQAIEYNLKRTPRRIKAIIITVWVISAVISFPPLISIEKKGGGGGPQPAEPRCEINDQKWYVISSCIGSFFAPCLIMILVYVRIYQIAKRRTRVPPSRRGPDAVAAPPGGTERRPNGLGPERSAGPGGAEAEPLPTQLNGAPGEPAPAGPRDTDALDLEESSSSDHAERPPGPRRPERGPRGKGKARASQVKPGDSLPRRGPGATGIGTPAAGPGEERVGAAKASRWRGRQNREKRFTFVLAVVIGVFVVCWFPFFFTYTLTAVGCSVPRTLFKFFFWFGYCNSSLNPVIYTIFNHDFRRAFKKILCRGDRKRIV
The data set can be described thus: Radioligand binding assay, [3H]rauwolscine competition. Set-up: expressed in transfected cells.

Data set [8] addresses T3, human α2A adrenergic receptor. Nature of the data set: Agonist activity: inhibition of forskolin-stimulated cAMP synthesis. The source holds these as a separate data set.

pEC50, pKi: −log10 of the molar value. Structures can show the parent of a compound that is named as a salt.

The pKi is the Ki on a negative log10 scale, so that one unit is a factor of ten. One may read the pEC50 as −log10 of the EC50, conventionally taken in molar units. The molecule `c1nc2ccc(NC3=NCCN3)cc2s1` showed a pKi in data set [1] of 6.99. This molecule showed a pEC50 in data set [2] of 6.38.
Consider `c1nc2ccc(NC3=NCCS3)cc2s1`, for which, in [1], the pKi was 5.97.
For orientation: melting point means the temperature, or range, at which the solid turns liquid. Molecule `Cc1c(NC2=NCCN2)ccc2[nH]ccc12` (as salt: fumarate) registered a melting point of 215 to 218 °C.
`Cc1c(NC2=NCCN2)ccc2ncsc12` (as salt: fumarate): the melting point lay within 213 to 215 °C.
As to `Brc1cc(NC2=NCCN2)cc2ncsc12` (as salt: fumarate), the melting point was in the range of 209 to 211 °C.
On the same count and under the same terms, the figure for `Clc1cc(NC2=NCCN2)cc2ncsc12` (as salt: fumarate) is 203 to 205 °C; for `Cc1cc(NC2=NCCN2)cc2ncsc12` (as salt: fumarate) it is 179 to 181 °C; for `CCc1cc(NC2=NCCN2)cc2ncsc12` (as salt: fumarate) it is 218 to 220 °C.
On the same count and under the same terms, the figure for `Clc1cc(NC2=NCCN2)cc2cc[nH]c12` (as salt: fumarate) is 261 to 262 °C; for `Cc1cc(NC2=NCCN2)cc2cc[nH]c12` (as salt: fumarate) it is 224 to 226 °C.
`Brc1cc(NC2=NCCN2)cc2cc[nH]c12` (as salt: fumarate) [Example 2, 7-Bromo-5-(2-imidazolin-2-ylamino)indole] yielded a melting point of 272 to 273 °C.
Molecule `Cc1cc(NC2=NCCS2)cc2cc[nH]c12` (as salt: fumarate) [Example 8, 7-Methyl-5-(2-thiazolin-2-ylamino)indole] gave a melting point of 200 to 202 °C.
On the same count and under the same terms, under `c1nc2cc(NC3=NCCN3)ccc2s1` (as salt: fumarate) [Example 13, 5-(2-Imidazolin-2-ylamino)benzothiazole] stands 201 to 203 °C; under `c1nc2ccc(NC3=NCCN3)cc2s1` (as salt: fumarate) [Example 14, 6-(2-Imidazolin-2-ylamino)benzothiazole], 215 to 216 °C; under `c1nc2ccc(NC3=NCCS3)cc2s1` (as salt: fumarate) [Example 15, 6-(2-Thiazolin-2-ylamino)benzothiazole], 181 to 183 °C.
Molecule `C=C(C)c1cc(NC2=NCCN2)cc2cc[nH]c12` (as salt: maleate) had a melting point of 154 to 156 °C.
In the case of `CC(C)c1cc(NC2=NCCN2)cc2cc[nH]c12` (as salt: succinate), the melting point lay in the range of 254 to 255 °C.
As to `Cc1cc(NC2=NCCS2)cc2cc[nH]c12` [Example 8, 7-Methyl-5-(2-thiazolin-2-ylamino)indole], the negative-log Ki (pKi) in data set [3] was 8.31; in data set [4], 7.62; in data set [7], 9.08. Moreover, the EC50 in data set [5] (inhibition of forskolin-stimulated cAMP, stably transfected cells expressing human α2B, read-out: pEC50 Alpha-2 B (converted)) was 44.7 nM; in [6] (inhibition of forskolin-stimulated cAMP, stably transfected cells expressing human α2C, read-out: pEC50 Alpha-2 C (converted)), 2.19 nM. In addition, in data set [5] (maximum activity relative to maximum activity induced by norepinephrine, human α2B), the “I.A (Intrinsic Activity) Alpha-2 B” value is reported as 0.80. Besides, the “I.A (Intrinsic Activity) Alpha-2 C” value in data set [6] (maximum activity relative to maximum activity induced by norepinephrine, human α2C) worked out at 1.00. Besides, the negative logarithm of the EC50 (pEC50) in data set [8] is 7.86. The “I.A (Intrinsic Activity) Alpha-2 A” value in [8] (maximum activity relative to maximum activity induced by norepinephrine, human α2A) worked out at 0.60.
